By Ki is commonly meant the dissociation constant of the complex between target and ligand, obtained from inhibition or displacement. A low value points to tighter binding.

The values that follow come from ChEMBL document CHEMBL1667859 (Bioorg Med Chem, 2011).

Sequence of 5-hydroxytryptamine receptor 6 (P50406 whole entry): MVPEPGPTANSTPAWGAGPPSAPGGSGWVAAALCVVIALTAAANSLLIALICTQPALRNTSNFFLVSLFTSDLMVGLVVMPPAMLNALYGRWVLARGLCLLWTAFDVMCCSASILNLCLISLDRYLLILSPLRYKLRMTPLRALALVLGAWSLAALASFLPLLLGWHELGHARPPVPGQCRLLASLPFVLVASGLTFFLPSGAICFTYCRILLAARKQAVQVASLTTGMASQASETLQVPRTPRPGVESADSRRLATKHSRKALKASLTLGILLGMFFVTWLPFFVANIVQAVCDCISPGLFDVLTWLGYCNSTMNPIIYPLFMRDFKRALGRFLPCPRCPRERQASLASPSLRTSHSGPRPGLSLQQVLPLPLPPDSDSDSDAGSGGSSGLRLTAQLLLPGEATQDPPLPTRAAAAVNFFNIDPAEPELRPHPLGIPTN

The assay concerns the target 5-hydroxytryptamine receptor 6 (Homo sapiens, UniProt P50406).
Description: Antagonist activity at human recombinant 5HT6 receptor expressed in HEK293 cells assessed as inhibition of serotonin-induced cAMP accumulation after 2 hrs
The molecule `CSc1nn2cccnc2c1S(=O)(=O)c1ccccc1` gave an inhibitory constant (Ki) of 115 nM.

`CSc1nn2c(C)cc(C)nc2c1S(=O)(=O)c1ccccc1` gave a Ki of 1.2 nM.

Turning to `CSc1nn2ccc(C)nc2c1S(=O)(=O)c1ccccc1`, affinity was put at a Ki of 16.6 nM.

`CSc1nn2c(C)ccnc2c1S(=O)(=O)c1ccccc1` showed a Ki of 16.6 nM.

`CNc1nn2c(C)cc(COC)nc2c1S(=O)(=O)c1ccccc1` had an inhibition constant Ki of 0.269 nM.

On to `CNc1nn2c(CO)cc(C)nc2c1S(=O)(=O)c1ccccc1`, for which the inhibition constant Ki was 0.282 nM.

As to `COCc1cc(C)nc2c(S(=O)(=O)c3ccccc3)c(SC)nn12`, the Ki was 155 nM.

In turn, `COCc1cc(C)n2nc(SC)c(S(=O)(=O)c3ccccc3)c2n1` showed an inhibition constant Ki of 3.24 nM.

In turn, `CSc1nn2c(CO)cc(C)nc2c1S(=O)(=O)c1ccccc1` gave an inhibitory constant (Ki) of 0.562 nM.

The molecule `CSc1nn2c(C)cc(CO)nc2c1S(=O)(=O)c1ccccc1` showed a Ki of 2.14 nM.

Molecule `CSc1nn2cccnc2c1S(=O)(=O)c1cccc(Cl)c1` showed a Ki of 15.1 nM.

In turn, `CSc1nn2c(C)cc(C)nc2c1S(=O)(=O)c1cccc(Cl)c1` gave a Ki of 0.759 nM.

Molecule `CSc1nn2c(C)cc(C)nc2c1S(=O)(=O)c1cccc(F)c1` had a Ki of 1.07 nM.

`CSc1nn2c(C)cc(C)nc2c1S(=O)(=O)c1ccc(Cl)cc1` had an inhibitory constant (Ki) of 3.16 nM.

`CSc1nn2c(C)cc(C)nc2c1S(=O)(=O)c1ccc(F)cc1` had an inhibition constant (Ki) of 6.76 nM.

Regarding `CSc1nn2cccnc2c1S(=O)(=O)c1ccc(F)cc1`, the affinity corresponds to a Ki of 132 nM.

For the molecule `CSc1nn2c(C)cc(C)nc2c1S(=O)(=O)c1ccc(O)cc1`, the inhibition constant (Ki) is 3.98 nM.

`COc1ccc(S(=O)(=O)c2c(SC)nn3c(C)cc(C)nc23)cc1`: the affinity corresponds to a Ki of 37.2 nM.

Molecule `CSc1nn2c(C)cc(C)nc2c1S(=O)(=O)c1ccc(N(C)C)cc1` gave a Ki of 37.2 nM.

`CSc1nn2cccnc2c1S(=O)(=O)c1ccc(F)c(Cl)c1`: the Ki is 44.7 nM.

Molecule `CSc1nn2c(C)cc(C)nc2c1S(=O)(=O)c1ccc(F)c(Cl)c1` showed a Ki of 3.8 nM.

In turn, `CSc1nn2ccc(C)nc2c1S(=O)(=O)c1ccc(F)c(Cl)c1` had an inhibition constant (Ki) of 7.94 nM.

In turn, `CNc1nn2cccnc2c1S(=O)(=O)c1ccccc1` gave a Ki of 3.89 nM.

Take `CNc1nn2c(C)cc(C)nc2c1S(=O)(=O)c1ccccc1`: the affinity corresponds to a Ki of 0.257 nM.

As to `CNc1nn2ccc(C)nc2c1S(=O)(=O)c1ccccc1`, the inhibition constant Ki was 1.45 nM.

As for `CNc1nn2c(C)ccnc2c1S(=O)(=O)c1ccccc1`, the affinity corresponds to a Ki of 0.24 nM.

As for `CNc1nn2c(COC)cc(C)nc2c1S(=O)(=O)c1ccccc1`, the inhibition constant (Ki) is 7.59 nM.

`CNc1nn2c(C)cc(CO)nc2c1S(=O)(=O)c1ccccc1`: the inhibition constant Ki was 0.479 nM.

For the molecule `CNc1nn2cccnc2c1S(=O)(=O)c1cccc(Cl)c1`, affinity was put at a Ki of 1.17 nM.

As for `CNc1nn2c(C)cc(C)nc2c1S(=O)(=O)c1cccc(Cl)c1`, affinity was put at a Ki of 0.186 nM.

On to `CNc1nn2c(C)cc(C)nc2c1S(=O)(=O)c1cccc(F)c1`, for which the Ki is 0.501 nM.

For the molecule `CNc1nn2c(C)cc(C)nc2c1S(=O)(=O)c1ccc(F)cc1`, the affinity, expressed as Ki, was 0.398 nM.

`CNc1nn2cccnc2c1S(=O)(=O)c1ccc(F)cc1` gave a Ki of 11.7 nM.

Turning to `CNc1nn2c(C)cc(C)nc2c1S(=O)(=O)c1ccc(O)cc1`, the inhibition constant Ki is 2 nM.

`CNc1nn2c(C)cc(C)nc2c1S(=O)(=O)c1ccc(OC)cc1` showed a Ki of 9.55 nM.

The molecule `CNc1nn2c(C)cc(C)nc2c1S(=O)(=O)c1ccc(F)c(Cl)c1` showed a Ki of 0.603 nM.
